How the values were obtained:
rat orexin-1 receptor = target: T1, rat orexin-1 receptor (Rattus norvegicus, UniProt P56718); assay: OX1R FLIPR Ca flux assay (CHO cells); format: cell-based; conditions: CHO cells expressing rat orexin-1 receptor; agonist 70 pM Ala-6,12 orexin-A
T1 construct: expressed in transfected cells; host or cells: CHO cells (G418 selection)
T1 sequence (P56718 1-416): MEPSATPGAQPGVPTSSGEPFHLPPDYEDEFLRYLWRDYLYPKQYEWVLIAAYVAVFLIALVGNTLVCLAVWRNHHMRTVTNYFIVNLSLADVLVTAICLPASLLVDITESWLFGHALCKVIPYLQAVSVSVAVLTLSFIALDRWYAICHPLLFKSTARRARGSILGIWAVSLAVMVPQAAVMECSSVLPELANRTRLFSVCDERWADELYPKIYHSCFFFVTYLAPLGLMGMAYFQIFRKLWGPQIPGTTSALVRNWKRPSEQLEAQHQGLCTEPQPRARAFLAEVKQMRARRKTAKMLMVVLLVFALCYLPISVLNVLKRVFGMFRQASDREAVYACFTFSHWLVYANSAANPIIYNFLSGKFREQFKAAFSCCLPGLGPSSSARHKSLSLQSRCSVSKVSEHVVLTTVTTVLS
Description: (§1) The utility of the compounds in accordance with the present invention as orexin receptor OX1R and/or OX2R antagonists may be readily determined without undue experimentation by methodology well known in the art, including the “FLIPR Ca^+ Flux Assay” (Okumura et al., Biochem. Biophys. Res. Comm. 280:976-981, 2001). In a typical experiment the OX1 and OX2 receptor antagonistic activity of the compounds of the present invention was determined in accordance with the following experimental method. For intracellular calcium measurements, Chinese hamster ovary (CHO) cells expressing the rat orexin-1 receptor or the human orexin-2 receptor, are grown in Iscove's modified DMEM containing 2 mM L-glutamine, […], 1% hypoxanthine-thymidine supplement, 100 U/ml penicillin, 100 μg/ml streptomycin and 10% heat-inactivated fetal calf serum (FCS). The cells are seeded at 20,000 cells/well into Becton-Dickinson black 384-well clear bottom sterile plates coated with poly-D-lysine. All reagents were from GIBCO-Invitrogen Corp. The seeded plates are incubated overnight at 37° C. and 5% CO2. Ala-6,12 human orexin-A as the agonist is prepared as a 1 mM stock solution in 1% bovine serum albumin (BSA) and diluted in assay buffer (HBSS containing 20 mM HEPES, 0.1% BSA and 2.5 mM probenecid, pH7.4) for use in the assay at a final concentration of 70 pM. Test compounds are prepared as 10 mM stock solution in DMSO, then diluted in 384-well plates, first in DMSO, then assay buffer. On the day of the assay, cells are washed 3 times with 100 μl assay buffer and then incubated for 60 min (37° C., 5% CO2) in 60 μl assay buffer containing 1 μM Fluo-4AM ester, 0.02% pluronic acid, and 1% BSA. The dye loading solution is then aspirated and cells are washed 3 times with 100 μl assay buffer. 30 μl of that same buffer is left in each well. Within the Fluorescent Imaging Plate Reader (FLIPR, Molecular Devices), test compounds are added to the plate in a volume of 25 μl, incubated for 5 min and finally 25 μl of agonist is added. Fluorescence is measured for each well at 1 second intervals for 5 minutes and the height of each fluorescence peak is compared to the height of the fluorescence peak induced by 70 pM Ala-6,12 orexin-A with buffer in place of antagonist. For each antagonist, IC50 value (the concentration of compound needed to inhibit 50% of the agonist response) is determined. Alternatively, compound potency can be assessed by a radioligand binding assay (described in Bergman et. al. Bioorg. Med. Chem. Lett. 2008, 18, 1425-1430) in which the inhibition constant (Ki) is determined in membranes prepared from CHO cells expressing either the OX1 or OX2 receptor. The intrinsic orexin receptor antagonist activity of a compound which may be used in the present invention may be determined by these assays.

human orexin-2 receptor = target: T2, human orexin-2 receptor (Homo sapiens, UniProt O43614); assay: OX2R FLIPR Ca flux assay (CHO cells); format: cell-based; conditions: for IC50: CHO cells expressing human orexin-2 receptor, agonist 70 pM Ala-6,12 orexin-A; for Fold Selectivity OX2R vs. OX1R: ratio of OX1R FLIPR to OX2R FLIPR
T2 construct: expressed in transfected cells; host or cells: CHO cells (G418 selection)
T2 sequence (O43614 1-444): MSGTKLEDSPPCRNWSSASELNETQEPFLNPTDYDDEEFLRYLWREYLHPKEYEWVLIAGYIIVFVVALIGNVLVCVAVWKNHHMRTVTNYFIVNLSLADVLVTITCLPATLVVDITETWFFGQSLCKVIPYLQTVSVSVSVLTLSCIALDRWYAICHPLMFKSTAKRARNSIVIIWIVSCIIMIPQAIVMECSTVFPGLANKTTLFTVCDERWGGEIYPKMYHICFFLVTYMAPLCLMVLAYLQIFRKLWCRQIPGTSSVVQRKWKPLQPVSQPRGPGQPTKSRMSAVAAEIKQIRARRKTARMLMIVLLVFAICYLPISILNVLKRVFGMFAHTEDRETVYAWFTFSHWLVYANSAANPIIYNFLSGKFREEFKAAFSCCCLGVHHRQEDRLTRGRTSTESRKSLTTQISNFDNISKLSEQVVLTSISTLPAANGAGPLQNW
Description: as §1

SMILES	IC50 (rat orexin-1 receptor)	IC50 (human orexin-2 receptor)	Fold Selectivity OX2R vs. OX1R (human orexin-2 receptor)
Cc1cc(C)nc(N2CCCN(C(=O)c3ccccc3OC(F)(F)F)CC2)n1 [Example 10, 1-(4,6-dimethylpyrimidin-2-yl)-4-{[2-(trifluoromethoxy)-phenyl]carbonyl}-1,4-diazepane]	> 10000 nM	36 nM	>277 fold
Cc1oc(N2CCCN(C(=O)c3cccnc3OCC(F)(F)F)CC2)nc1C(C)(C)O [Example 17, 2-[5-methyl-2-(4-{[2-(2,2,2-trifluoroethoxy)pyridin-3-yl]carbonyl}-1,4-diazepan-1-yl)-1,3-oxazol-4-yl]propan-2-ol]	2490 nM	17 nM	146 fold
CCOc1ccccc1C(=O)N1CCCN(c2nc(C)cc(C)n2)CC1 [Example 7, 1-(4,6-dimethylpyrimidin-2-yl)-4-[(2-ethoxyphenyl)carbonyl]-1,4-diazepane]	8500 nM	64 nM	132 fold
CCOc1ccccc1C(=O)N1CCCN(c2nc(C(C)(C)O)c(C)o2)CC1 [Example 19, 2-(2-{4-[(2-ethoxyphenyl)carbonyl]-1,4-diazepan-1-yl}-5-methyl-1,3-oxazol-4-yl)propan-2-ol]	3240 nM	19 nM	170 fold
CC(C)(O)c1csc(N2CCCN(C(=O)c3ccc(F)cc3-n3nccn3)CC2)n1 [Example 26, (4-fluoro-2-(2H-1,2,3-triazol-2-yl)phenyl)(4-(4-(2-hydroxypropan-2-yl)thiazol-2-yl)-1,4-diazepan-1-yl)methanone]	> 10000 nM	136 nM	>73 fold
Cc1cc(C)nc(N2CCCN(C(=O)c3cccnc3OCC(F)F)CC2)n1 [Example 6, 1-{[2-(2,2-difluoroethoxy)pyridin-3-yl]carbonyl}-4-(4,6-dimethylpyrimidin-2-yl)-1,4-diazepane]	> 10000 nM	20 nM	>500 fold
CC(C)(O)c1csc(N2CCCN(C(=O)c3ccccc3C3CC3)CC2)n1 [Example 25, (2-cyclopropylphenyl)(4-(4-(2-hydroxypropan-2-yl)thiazol-2-yl)-1,4-diazepan-1-yl)methanone]	> 10000 nM	108 nM	>92 fold

From patent US9732077B2, “Diazepane orexin receptor antagonists” (MERCK SHARP & DOHME CORP., priority 2013, dated 2017)
